Measured values reported in ChEMBL document CHEMBL1201862, “PubChem BioAssay data set” (2004).
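Interpolation was linear, between the two tested concentrations surrounding the appropriate level; five concentrations were tested over 48 hours in 96-well plates. GI50 marks 50% less growth.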 The source made the active and inactive calls. Cut-off read from the data, not from the text of the source: active = GI50 up to about 1.1 µM and inactive = higher.

Columns and labels:
Test in all cases: inhibition of tumour cell growth, NCI panel, 48 h
MOLT-4 = tested on: MOLT-4
OVCAR-4 = tested on: OVCAR-4
SR = tested on: SR
SK-MEL-28 = tested on: SK-MEL-28
M14 = tested on: M14
HCT-15 = tested on: HCT-15
OVCAR-3 = tested on: OVCAR-3
K562 = tested on: K562
NCI-H460 = tested on: NCI-H460
SK-OV-3 = tested on: SK-OV-3
UACC-62 = tested on: UACC-62
SNB-75 = tested on: SNB-75
CCRF-CEM = tested on: CCRF-CEM
SK-MEL-5 = tested on: SK-MEL-5
HOP-62 = tested on: HOP-62
NCI/ADR-RES = tested on: NCI/ADR-RES
PC-3 = tested on: PC-3
SF-268 = tested on: SF-268
HT-29 = tested on: HT-29
HOP-92 = tested on: HOP-92

Row | SMILES | GI50 (MOLT-4) | GI50 (OVCAR-4) | GI50 (SR) | GI50 (SK-MEL-28) | GI50 (M14) | GI50 (HCT-15) | GI50 (OVCAR-3) | GI50 (K562) | GI50 (NCI-H460) | GI50 (SK-OV-3) | GI50 (UACC-62) | GI50 (SNB-75) | GI50 (CCRF-CEM) | GI50 (SK-MEL-5) | GI50 (HOP-62) | GI50 (NCI/ADR-RES) | GI50 (PC-3) | GI50 (SF-268) | GI50 (HT-29) | GI50 (HOP-92)
1 | c1csc(-c2ccc(-c3cccc4nsnc34)s2)c1 | 18.7 µM (inactive) | 21.7 µM (inactive) | 13 µM (inactive) | > 100 µM (inactive) | > 100 µM (inactive) | > 100 µM | > 100 µM (inactive) | 32 µM (inactive) | > 100 µM (inactive) | > 100 µM (inactive) | > 100 µM (inactive) | 49.3 µM (inactive) | 20.2 µM (inactive) | > 100 µM (inactive) | 27.4 µM (inactive) | > 100 µM (inactive) | > 100 µM (inactive) | > 100 µM (inactive) |  | 
2 | COC(=O)C(=O)C(C(=O)C(=O)Nc1cccc([N+](=O)[O-])c1)c1nc2ccc(Cl)cc2nc1O (stereo not given) | > 100 µM (inactive) | > 100 µM (inactive) |  | > 100 µM (inactive) | > 100 µM (inactive) | > 100 µM | > 100 µM (inactive) |  | > 100 µM (inactive) | > 100 µM (inactive) | > 100 µM (inactive) | 77.1 µM (inactive) | > 100 µM (inactive) | > 100 µM (inactive) | > 100 µM (inactive) | > 100 µM (inactive) | > 100 µM (inactive) | > 100 µM (inactive) | > 100 µM (inactive) | > 100 µM (inactive)
3 | CSc1ccsc1-c1sc(-c2cc(SC)c(-c3sc(-c4cc(SC)c(-c5sccc5SC)s4)cc3SC)s2)cc1SC | 18 µM (inactive) | > 100 µM (inactive) |  | > 100 µM (inactive) | > 100 µM (inactive) | > 100 µM | 49.8 µM (inactive) | 46.8 µM (inactive) | > 100 µM (inactive) | > 100 µM (inactive) | 42.2 µM (inactive) |  | 4.26 µM (inactive) | > 100 µM (inactive) | > 100 µM (inactive) | 45.7 µM (inactive) | 76.4 µM (inactive) | > 100 µM (inactive) | 93.5 µM (inactive) | 62.4 µM (inactive)
4 | CCNCC(=O)Nc1ccc2c(c1)C(=O)c1ccc(NC(=O)CNCC)cc1C2=O |  | 0.514 µM (active) |  | 5.61 µM (inactive) | 3.5 µM (inactive) | 1.93 µM | 2.59 µM (inactive) | 1.78 µM (inactive) | 1.49 µM (inactive) | 2.76 µM (inactive) | 3.75 µM (inactive) | 1.41 µM (inactive) | 2.9 µM (inactive) | 36.4 µM (inactive) | 5.75 µM (inactive) | 6.08 µM (inactive) | 2.76 µM (inactive) | 3.27 µM (inactive) | 2.45 µM (inactive) | 3.38 µM (inactive)
5 | CCOC(=O)c1nc2ccccc2nc1Oc1ccc(F)cc1 |  |  |  | > 100 µM (inactive) | > 100 µM (inactive) | > 100 µM | > 100 µM (inactive) | > 100 µM (inactive) | > 100 µM (inactive) | > 100 µM (inactive) | > 100 µM (inactive) | 11.4 µM (inactive) | > 100 µM (inactive) | > 100 µM (inactive) | > 100 µM (inactive) | > 100 µM (inactive) | > 100 µM (inactive) | 55.8 µM (inactive) | > 100 µM (inactive) | 2.64 µM (inactive)
6 | COC(=O)CCc1ccc2c(c1)CC1(Cc3ccccc3C1)C2 | 77.1 µM (inactive) | > 100 µM (inactive) |  |  | > 100 µM (inactive) | > 100 µM | > 100 µM (inactive) | > 100 µM (inactive) |  | > 100 µM (inactive) | 57.3 µM (inactive) | < 0.01 µM (active) | 34.6 µM (inactive) | 33.6 µM (inactive) | > 100 µM (inactive) | > 100 µM (inactive) | > 100 µM (inactive) |  | > 100 µM (inactive) | 97.5 µM (inactive)
7 | O=c1[nH]nc(Cc2ccccc2)n1/N=C/c1ccco1 | 99.5 µM (inactive) | > 100 µM (inactive) |  | > 100 µM (inactive) | > 100 µM (inactive) | > 100 µM | > 100 µM (inactive) | > 100 µM (inactive) | > 100 µM (inactive) | > 100 µM (inactive) | > 100 µM (inactive) | > 100 µM (inactive) | > 100 µM (inactive) |  | > 100 µM (inactive) | > 100 µM (inactive) | > 100 µM (inactive) | > 100 µM (inactive) | > 100 µM (inactive) | 
8 | COC(=O)C(Cc1c(-c2[nH]c3ccccc3c2CC(NC(C)=O)C(=O)OC)[nH]c2ccccc12)NC(C)=O (stereo not given) | > 100 µM (inactive) |  |  | > 100 µM (inactive) | > 100 µM (inactive) | > 100 µM | > 100 µM (inactive) | > 100 µM (inactive) | > 100 µM (inactive) | > 100 µM (inactive) | > 100 µM (inactive) | 92 µM (inactive) | > 100 µM (inactive) | > 100 µM (inactive) | > 100 µM (inactive) | > 100 µM (inactive) | > 100 µM (inactive) | > 100 µM (inactive) | > 100 µM (inactive) | > 100 µM (inactive)
